Numbered stars: 1 amine (or outer) side, 2 acyl side, 3 side chain; on linkers, the order of the positions; unused ones are H or OH. Bridge positions count the residues as written; N and C are the ends. Square brackets hold non-standard residues; d marks the D form. Peptide text beside a SMILES is read from it. * marks the point of attachment. Ala(piperidin-4-yl) = O=C([C@H](CC1CCN([*:3])CC1)N[*:1])[*:2]; DOTA = O=C(O)CN1CCN(CC(=O)O)CCN(CC(=O)*)CCN(CC(=O)O)CC1; Trp(7-Me) = Cc1cccc2c(C[C@H](N)C(=O)O)c[nH]c12; 1Nal = N[C@@H](Cc1cccc2ccccc12)C(=O)O; 2Nal = N[C@@H](Cc1ccc2ccccc2c1)C(=O)O; NMetBuAla = CN[C@@H](CC(C)(C)C)C(=O)O; tBuAla = CC(C)(C)C[C@H](N)C(=O)O; NMeD = CN[C@@H](CC(=O)O)C(=O)O; Chg = N[C@H](C(=O)O)C1CCCCC1; Pen = CC(C)(S)[C@H](N)C(=O)O; αMeP = C[C@@]1(C(=O)O)CCCN1; NMeS = CN[C@@H](CO)C(=O)O; αMeS = C[C@](N)(CO)C(=O)O; Ahx = NCCCCCC(=O)O

The assay addresses T1, human DLL3 (Homo sapiens, UniProt Q9NYJ7).
T1 construct: biotin (biotinylated)
T1 sequence (Q9NYJ7 27-618): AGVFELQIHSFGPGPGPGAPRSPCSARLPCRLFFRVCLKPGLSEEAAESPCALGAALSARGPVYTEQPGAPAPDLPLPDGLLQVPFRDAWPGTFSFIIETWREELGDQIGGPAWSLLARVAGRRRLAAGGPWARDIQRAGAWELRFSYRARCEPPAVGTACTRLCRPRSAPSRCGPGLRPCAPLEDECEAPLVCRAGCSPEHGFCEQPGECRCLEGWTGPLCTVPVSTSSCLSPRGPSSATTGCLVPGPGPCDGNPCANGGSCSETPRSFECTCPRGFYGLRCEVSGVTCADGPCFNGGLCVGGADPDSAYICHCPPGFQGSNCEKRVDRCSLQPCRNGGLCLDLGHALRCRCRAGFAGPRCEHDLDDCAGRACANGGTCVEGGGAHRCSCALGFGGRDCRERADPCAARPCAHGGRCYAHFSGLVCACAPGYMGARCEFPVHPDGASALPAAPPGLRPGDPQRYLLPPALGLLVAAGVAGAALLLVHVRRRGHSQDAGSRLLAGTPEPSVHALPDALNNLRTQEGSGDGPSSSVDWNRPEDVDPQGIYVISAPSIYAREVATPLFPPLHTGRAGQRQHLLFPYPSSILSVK
Nature of the assay: Affinity determination by Surface Plasmon Resonance (SPR), Biacore, 1:1 binding model. The settings on record: biotinylated human DLL3 on streptavidin chip, 25° C.; NB = nonbinding. Put shortly: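 SPR with biotinylated human DLL3 captured on a streptavidin chip, with a reference surface subtracted. Samples were injected at several concentrations at 100 μL/min in phosphate buffer with 137 mM NaCl, 2.7 mM KCl, 0.05% P20 and 2% DMSO. Kinetic and affinity constants came from a 1:1 binding fit.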
Regarding `CC(=O)N[C@H](C)C(=O)N[C@@H](CO)C(=O)N[C@@H](CC(=O)O)C(=O)N[C@@H]1C(=O)N[C@@H](Cc2cccc3ccccc23)C(=O)N[C@@H](CC(C)(C)C)C(=O)N[C@@H](CCC(N)=O)C(=O)N[C@@H](Cc2ccc3ccccc3c2)C(=O)N[C@@H](CC(N)=O)C(=O)N[C@H](C(=O)N2CCC[C@@]2(C)C(=O)N[C@@H](Cc2ccccc2)C(=O)N[C@@H](CC(=O)O)C(=O)N[C@H](CCCCNC(=O)CN2CCN(CC(=O)O)CCN(CC(=O)O)CCN(CC(=O)O)CC2)C(N)=O)CSSC1(C)C` [compound 162, Ac-(D-Ala)-S-D-Pen(3)-(1Nal)-(t-Bu-Ala)-Q-(2Nal)-N-C(3)-(aMe-P)-F -D-D-Lys(DOTA)-CONH2] (Ac-[dA]SD[Pen][1Nal][tBuAla]Q[2Nal]NC[αMeP]FD[dK](DOTA)-NH2; disulfide 4-10), the Kd (commonly the constant that tells how readily two partners part at equilibrium) is 224 nM.

Compound `CC(=O)N[C@H](C)C(=O)N[C@@H](CO)C(=O)N[C@@H](CC(=O)O)C(=O)N[C@H]1CSSC[C@@H](C(=O)N2CCC[C@@]2(C)C(=O)N[C@@H](Cc2ccccc2)C(=O)N[C@@H](CC(=O)O)C(=O)N[C@H](CCCCNC(=O)CN2CCN(CC(=O)O)CCN(CC(=O)O)CCN(CC(=O)O)CC2)C(N)=O)NC(=O)[C@H](CC(N)=O)NC(=O)[C@H](Cc2ccc3ccccc3c2)NC(=O)[C@H](C)NC(=O)[C@H](CC(C)(C)C)NC(=O)[C@H](Cc2cccc3ccccc23)NC1=O` [compound 165, Ac-(D-Ala)-S-D-C(3)-(1Nal)-(t-Bu-Ala)-Ala-(2Nal)-N-C(3)-(aMe-P)-F-D-[D-Lys(DOTA)]-NH2] (Ac-[dA]SDC[1Nal][tBuAla]A[2Nal]NC[αMeP]FD[dK](DOTA)-NH2; disulfide 4-10) returned a Kd of 0.094 nM. The value for `CC(=O)N[C@H](C)C(=O)N[C@@](C)(CO)C(=O)N[C@@H](CC(=O)O)C(=O)N[C@H]1CSSC[C@@H](C(=O)N2CCC[C@@]2(C)C(=O)N[C@@H](Cc2ccccc2)C(=O)N[C@@H](CC(=O)O)C(=O)N[C@H](CCCCNC(=O)CN2CCN(CC(=O)O)CCN(CC(=O)O)CCN(CC(=O)O)CC2)C(N)=O)NC(=O)[C@H](CC(N)=O)NC(=O)[C@H](Cc2ccc3ccccc3c2)NC(=O)[C@H](CCC(N)=O)NC(=O)[C@H](CC(C)(C)C)NC(=O)[C@H](Cc2cccc3ccccc23)NC1=O` [compound 167, Ac-(D-Ala)-(aMe-Ser)-D-C(3)-(1Nal)-(t-Bu-Ala)-Q-(2Nal)-N-C(3)-(aMe-P)-F-D-[D-Lys(DOTA)]-NH2] (Ac-[dA][αMeS]DC[1Nal][tBuAla]Q[2Nal]NC[αMeP]FD[dK](DOTA)-NH2; disulfide 4-10) was 0.24 nM. The value for `CC(=O)N[C@H](C)C(=O)N(C)[C@@H](CO)C(=O)N[C@@H](CC(=O)O)C(=O)N[C@H]1CSSC[C@@H](C(=O)N2CCC[C@@]2(C)C(=O)N[C@@H](Cc2ccccc2)C(=O)N[C@@H](CC(=O)O)C(=O)N[C@H](CCCCNC(=O)CN2CCN(CC(=O)O)CCN(CC(=O)O)CCN(CC(=O)O)CC2)C(N)=O)NC(=O)[C@H](CC(N)=O)NC(=O)[C@H](Cc2ccc3ccccc3c2)NC(=O)[C@H](CCC(N)=O)NC(=O)[C@H](CC(C)(C)C)NC(=O)[C@H](Cc2cccc3ccccc23)NC1=O` [compound 169, Ac-(D-Ala)-(NMe-Ser)-D-C(3)-(1Nal)-(t-Bu-Ala)-Q-(2Nal)-N-C(3)-(aMe-P)-F-D-[D-Lys(DOTA)]-NH2] (Ac-[dA][NMeS]DC[1Nal][tBuAla]Q[2Nal]NC[αMeP]FD[dK](DOTA)-NH2; disulfide 4-10) was 0.057 nM; that for `CC(=O)N[C@H](C)C(=O)N[C@@H](CO)C(=O)N(C)[C@@H](CC(=O)O)C(=O)N[C@H]1CSSC[C@@H](C(=O)N2CCC[C@@]2(C)C(=O)N[C@@H](Cc2ccccc2)C(=O)N[C@@H](CC(=O)O)C(=O)N[C@H](CCCCNC(=O)CN2CCN(CC(=O)O)CCN(CC(=O)O)CCN(CC(=O)O)CC2)C(N)=O)NC(=O)[C@H](CC(N)=O)NC(=O)[C@H](Cc2ccc3ccccc3c2)NC(=O)[C@H](CCC(N)=O)NC(=O)[C@H](CC(C)(C)C)NC(=O)[C@H](Cc2cccc3ccccc23)NC1=O` [compound 170, Ac-(D-Ala)-S-(NMe-Asp)-C(3)-(1Nal)-(t-Bu-Ala)-Q-(2Nal)-N-C(3)-(aMe-P)-F-D-[D-Lys(DOTA)]-NH2] (Ac-[dA]S[NMeD]C[1Nal][tBuAla]Q[2Nal]NC[αMeP]FD[dK](DOTA)-NH2; disulfide 4-10) was 0.38 nM. `CC(=O)N[C@H](C)C(=O)N[C@@H](CO)C(=O)N[C@@H](CC(=O)O)C(=O)N[C@H]1CSSC[C@@H](C(=O)N2CCC[C@@]2(C)C(=O)N[C@@H](Cc2ccccc2)C(=O)N[C@@H](CC(=O)O)C(=O)N[C@H](CCCCNC(=O)CN2CCN(CC(=O)O)CCN(CC(=O)O)CCN(CC(=O)O)CC2)C(N)=O)NC(=O)[C@H](CC(N)=O)NC(=O)[C@H](Cc2ccc3ccccc3c2)NC(=O)[C@H](CCC(N)=O)NC(=O)[C@H](CC(C)(C)C)N(C)C(=O)[C@H](Cc2cccc3ccccc23)NC1=O` [compound 171, Ac-(D-Ala)-S-D-C(3)-(1Nal)-(NMe-Tba)-Q-(2Nal)-N-C(3)-(aMe-P)-F -D-[D-Lys(DOTA)]-NH2] (Ac-[dA]SDC[1Nal][NMetBuAla]Q[2Nal]NC[αMeP]FD[dK](DOTA)-NH2; disulfide 4-10) had an equilibrium dissociation constant (Kd) of 1.21 nM. The value for `CC(=O)N[C@H](C)C(=O)N[C@@H](CO)C(=O)N[C@@H](CC(=O)O)C(=O)N[C@H]1CSSC[C@@H](C(=O)N2CCC[C@@]2(C)C(=O)N[C@@H](Cc2ccccc2)C(=O)N[C@@H](CC(=O)O)C(=O)N[C@H](CCCCNC(=O)CN2CCN(CC(=O)O)CCN(CC(=O)O)CCN(CC(=O)O)CC2)C(N)=O)NC(=O)[C@H](CC(N)=O)NC(=O)[C@H](Cc2ccc3ccccc3c2)NC(=O)[C@H](CCC(N)=O)NC(=O)[C@H](CC(C)(C)C)NC(=O)[C@H](Cc2cccc3ccccc23)NC1=O` [compound 172, Ac-(D-Ala)-S-D-C(3)-(1Nal)-(t-Bu-Ala)-Q-(2Nal)-N-C(3)-(aMe-P)-F -D-[D-Lys(DOTA)]-NH2] (Ac-[dA]SDC[1Nal][tBuAla]Q[2Nal]NC[αMeP]FD[dK](DOTA)-NH2; disulfide 4-10) was 0.037 nM; that for `CC(=O)N[C@H](C)C(=O)N[C@@H](CO)C(=O)N[C@@H](CC(=O)O)C(=O)N[C@H]1CSSC[C@@H](C(=O)N2CCC[C@@]2(C)C(=O)N[C@@H](Cc2ccccc2)C(=O)N[C@@H](CC(=O)O)C(=O)N[C@H](CCCCNC(=O)CN2CCN(CC(=O)O)CCN(CC(=O)O)CCN(CC(=O)O)CC2)C(N)=O)NC(=O)[C@H](CC(N)=O)NC(=O)[C@H](Cc2ccc3ccccc3c2)NC(=O)[C@H](CCC(N)=O)NC(=O)[C@H](CC(C)(C)C)NC(=O)[C@H](Cc2c[nH]c3c(C)cccc23)NC1=O` [compound 173, Ac-(D-Ala)-S-D-C(3)-(7Me-W)-(t-Bu-Ala)-Q-(2Nal)-N-C(3)-(aMe-P)-F -D-[D-Lys(DOTA)]-NH2] (Ac-[dA]SDC[Trp(7-Me)][tBuAla]Q[2Nal]NC[αMeP]FD[dK](DOTA)-NH2; disulfide 4-10) was 0.48 nM. For `CC(=O)N[C@H](C(=O)N[C@@H](CO)C(=O)N[C@@H](CC(=O)O)C(=O)N[C@H]1CSSC[C@@H](C(=O)N2CCC[C@@]2(C)C(=O)N[C@@H](Cc2ccccc2)C(=O)N[C@@H](CC(=O)O)C(N)=O)NC(=O)[C@H](CC(N)=O)NC(=O)[C@H](Cc2ccc3ccccc3c2)NC(=O)[C@H](CCCCNC(=O)CN2CCN(CC(=O)O)CCN(CC(=O)O)CCN(CC(=O)O)CC2)NC(=O)[C@H](CC(C)(C)C)NC(=O)[C@H](Cc2cccc3ccccc23)NC1=O)C1CCCCC1` [compound 174, Ac-(Chg)-S-D-C(3)-(1Nal)-(t-Bu-Ala)-[L-Lys(DOTA)]-(2Nal)-N-C(3)-(aMe-P)-F -D-CONH2] (Ac-[Chg]SDC[1Nal][tBuAla]K(DOTA)[2Nal]NC[αMeP]FD-NH2; disulfide 4-10), the Kd stood at 0.23 nM. The value for `C[C@@H](NC(=O)CN1CCN(CC(=O)O)CCN(CC(=O)O)CCN(CC(=O)O)CC1)C(=O)N[C@@H](CO)C(=O)N[C@@H](CC(=O)O)C(=O)N[C@H]1CSSC[C@@H](C(=O)N2CCC[C@@]2(C)C(=O)N[C@@H](Cc2ccccc2)C(=O)N[C@@H](CC(=O)O)C(N)=O)NC(=O)[C@H](CC(N)=O)NC(=O)[C@H](Cc2ccc3ccccc3c2)NC(=O)[C@H](CC2CCNCC2)NC(=O)[C@H](CC(C)(C)C)NC(=O)[C@H](Cc2cccc3ccccc23)NC1=O` [compound 175, DOTA-(D-Ala)-S-D-C(3)-(1Nal)-(t-Bu-Ala)-[3-(4-piperidinyl)-Ala]-(2Nal)-N-C(3)-(aMe-P)-F -D-CONH2] ({DOTA}-[dA]SDC[1Nal][tBuAla][Ala(piperidin-4-yl)][2Nal]NC[αMeP]FD-NH2; disulfide 4-10) was 0.067 nM; that for `C[C@@H](NC(=O)CCCCCNC(=O)CN1CCN(CC(=O)O)CCN(CC(=O)O)CCN(CC(=O)O)CC1)C(=O)N[C@@H](CO)C(=O)N[C@@H](CC(=O)O)C(=O)N[C@H]1CSSC[C@@H](C(=O)N2CCC[C@@]2(C)C(=O)N[C@@H](Cc2ccccc2)C(=O)N[C@@H](CC(=O)O)C(N)=O)NC(=O)[C@H](CC(N)=O)NC(=O)[C@H](Cc2ccc3ccccc3c2)NC(=O)[C@H](CC2CCNCC2)NC(=O)[C@H](CC(C)(C)C)NC(=O)[C@H](Cc2cccc3ccccc23)NC1=O` [compound 177, DOTA-PEG4-S-D-C(3)-(1Nal)-(t-Bu-Ala)-[3-(4-piperidinyl)-Ala]-(2Nal)-N-C(3)-(aMe-P)-F -D-CONH2] ({DOTA-Ahx}-[dA]SDC[1Nal][tBuAla][Ala(piperidin-4-yl)][2Nal]NC[αMeP]FD-NH2; disulfide 4-10) was 0.098 nM.
